Measured values reported in the supplement of paper PMC13207355.

Assays:
Settings in all cases: exposure time: 72 h
E13 [1] = patient-derived glioblastoma stem cells of classical subtype; test: surviving fraction (nuclei count normalised to DMSO); higher = more cells surviving (less toxic)
E21 [2] = patient-derived glioblastoma stem cells of mesenchymal subtype; test: as above
E28 [3] = patient-derived glioblastoma stem cells of classical subtype; test: as above
E31 [4] = patient-derived glioblastoma stem cells of proneural subtype; test: as above
E34 [5] = patient-derived glioblastoma stem cells of proneural subtype; test: as above
E57 [6] = patient-derived glioblastoma stem cells of mesenchymal subtype; test: as above
FT3469 [7] = normal neural stem cell line; test: as above
E13 [8] = test: phenotypic distance (Euclidean, principal components) from DMSO controls (arbitrary units); higher = stronger morphological change
E21 [9] = test: as above
E28 [10] = test: as above
E31 [11] = test: as above
E34 [12] = test: as above
E57 [13] = test: as above
FT3469 [14] = test: as above
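Throughout, for phenotypic distance (Euclidean, principal components) from DMSO controls: cell Painting imaging in 384-well plates, CellProfiler features reduced to at least 20 principal components, Euclidean distance versus same-plate DMSO vehicle wells (0.1% v/v), median over six images per well.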
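Throughout, for surviving fraction (nuclei count normalised to DMSO): nuclei counted by high-content imaging of Hoechst-stained cells in laminin-coated 384-well plates, relative to 0.1% DMSO vehicle wells, with staurosporine as cell-death control.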

Nc1ncn([C@@H]2O[C@H](CO)[C@@H](O)[C@H]2O)c(=O)n1 [5-azacytidine]
Settings	phenotypic distance	surviving fraction
E13 [1], 4.11523 nM	–	0.808
E13 [1], 12.34567901 nM	–	0.874
E13 [1], 37.037 nM	–	0.939
E13 [1], 111.1111111 nM	–	0.778
E13 [1], 333.333 nM	–	0.755
E13 [1], 1000 nM	–	0.67
E13 [1], 3000 nM	–	0.358
E13 [8], 4.11523 nM	0.922	–
E13 [8], 12.34567901 nM	0.542	–
E13 [8], 37.037 nM	0.817	–
E13 [8], 111.1111111 nM	1.58	–
E13 [8], 333.333 nM	1.47	–
E13 [8], 1000 nM	3	–
E13 [8], 3000 nM	6.57	–
E21 [2], 4.11523 nM	–	0.745
E21 [2], 12.34567901 nM	–	0.93
E21 [2], 37.037 nM	–	0.921
E21 [2], 111.1111111 nM	–	0.871
E21 [2], 333.333 nM	–	0.665
E21 [2], 1000 nM	–	0.6
E21 [2], 3000 nM	–	0.426
E21 [9], 4.11523 nM	1.24	–
E21 [9], 12.34567901 nM	5.31	–
E21 [9], 37.037 nM	1.2	–
E21 [9], 111.1111111 nM	1.66	–
E21 [9], 333.333 nM	1.85	–
E21 [9], 1000 nM	2.19	–
E21 [9], 3000 nM	3.53	–
E28 [3], 4.11523 nM	–	0.899
E28 [3], 12.34567901 nM	–	1.22
E28 [3], 37.037 nM	–	0.711
E28 [3], 111.1111111 nM	–	0.969
E28 [3], 333.333 nM	–	0.753
E28 [3], 1000 nM	–	0.984
E28 [3], 3000 nM	–	0.497
E28 [10], 4.11523 nM	0.861	–
E28 [10], 12.34567901 nM	1.19	–
E28 [10], 37.037 nM	1.09	–
E28 [10], 111.1111111 nM	0.941	–
E28 [10], 333.333 nM	0.932	–
E28 [10], 1000 nM	1.03	–
E28 [10], 3000 nM	1.84	–
E31 [4], 4.11523 nM	–	0.945
E31 [4], 12.34567901 nM	–	0.84
E31 [4], 37.037 nM	–	0.848
E31 [4], 111.1111111 nM	–	0.9
E31 [4], 333.333 nM	–	0.718
E31 [4], 1000 nM	–	0.644
E31 [4], 3000 nM	–	0.298
E31 [11], 4.11523 nM	1.21	–
E31 [11], 12.34567901 nM	1.33	–
E31 [11], 37.037 nM	1.03	–
E31 [11], 111.1111111 nM	0.932	–
E31 [11], 333.333 nM	1.18	–
E31 [11], 1000 nM	1.85	–
E31 [11], 3000 nM	3.43	–
E34 [5], 4.11523 nM	–	0.97
E34 [5], 12.34567901 nM	–	1.02
E34 [5], 37.037 nM	–	1.01
E34 [5], 111.1111111 nM	–	1.07
E34 [5], 333.333 nM	–	0.862
E34 [5], 1000 nM	–	0.731
E34 [5], 3000 nM	–	0.643
E34 [12], 4.11523 nM	0.558	–
E34 [12], 12.34567901 nM	0.75	–
E34 [12], 37.037 nM	1.12	–
E34 [12], 111.1111111 nM	0.943	–
E34 [12], 333.333 nM	1.52	–
E34 [12], 1000 nM	1.39	–
E34 [12], 3000 nM	2.19	–
E57 [6], 4.11523 nM	–	0.959
E57 [6], 12.34567901 nM	–	0.904
E57 [6], 37.037 nM	–	0.961
E57 [6], 111.1111111 nM	–	0.841
E57 [6], 333.333 nM	–	0.78
E57 [6], 1000 nM	–	0.507
E57 [6], 3000 nM	–	0.287
E57 [13], 4.11523 nM	0.981	–
E57 [13], 12.34567901 nM	1.07	–
E57 [13], 37.037 nM	1.13	–
E57 [13], 111.1111111 nM	1.59	–
E57 [13], 333.333 nM	1.59	–
E57 [13], 1000 nM	3.31	–
E57 [13], 3000 nM	5.71	–
FT3469 [7], 4.11523 nM	–	0.82
FT3469 [7], 12.34567901 nM	–	0.768
FT3469 [7], 37.037 nM	–	0.86
FT3469 [7], 111.1111111 nM	–	0.944
FT3469 [7], 333.333 nM	–	0.915
FT3469 [7], 1000 nM	–	0.734
FT3469 [7], 3000 nM	–	0.665
FT3469 [14], 4.11523 nM	1.08	–
FT3469 [14], 12.34567901 nM	1.06	–
FT3469 [14], 37.037 nM	0.921	–
FT3469 [14], 111.1111111 nM	0.795	–
FT3469 [14], 333.333 nM	0.957	–
FT3469 [14], 1000 nM	1.34	–
FT3469 [14], 3000 nM	2.03	–

O=C(/C=C/c1ccc([N+](=O)[O-])cc1)/C=C1/C(=O)Nc2ccc(F)cc21 [APIO-EE-07]
Settings	phenotypic distance	surviving fraction
E13 [1], 2.7 nM	–	0.978
E13 [1], 8.2 nM	–	0.955
E13 [1], 24.7 nM	–	0.964
E13 [1], 74.1 nM	–	1.0673
E13 [1], 222.2 nM	–	0.994
E13 [1], 666.7 nM	–	0.9741
E13 [1], 2000 nM	–	0.841
E13 [8], 2.7 nM	0.638	–
E13 [8], 8.2 nM	0.674	–
E13 [8], 24.7 nM	0.47	–
E13 [8], 74.1 nM	0.494	–
E13 [8], 222.2 nM	0.491	–
E13 [8], 666.7 nM	0.644	–
E13 [8], 2000 nM	0.888	–
E21 [2], 2.7 nM	–	0.996
E21 [2], 8.2 nM	–	0.929
E21 [2], 24.7 nM	–	1.04
E21 [2], 74.1 nM	–	0.991
E21 [2], 222.2 nM	–	0.989
E21 [2], 666.7 nM	–	1.03
E21 [2], 2000 nM	–	0.642
E21 [9], 2.7 nM	0.833	–
E21 [9], 8.2 nM	0.648	–
E21 [9], 24.7 nM	0.526	–
E21 [9], 74.1 nM	2.82	–
E21 [9], 222.2 nM	0.86	–
E21 [9], 666.7 nM	0.927	–
E21 [9], 2000 nM	2.33	–
E28 [3], 2.7 nM	–	1.1
E28 [3], 8.2 nM	–	0.992
E28 [3], 24.7 nM	–	1
E28 [3], 74.1 nM	–	1.04
E28 [3], 222.2 nM	–	0.944
E28 [3], 666.7 nM	–	1.054
E28 [3], 2000 nM	–	0.293
E28 [10], 2.7 nM	0.693	–
E28 [10], 8.2 nM	0.629	–
E28 [10], 24.7 nM	0.459	–
E28 [10], 74.1 nM	0.507	–
E28 [10], 222.2 nM	1.59	–
E28 [10], 666.7 nM	0.58	–
E28 [10], 2000 nM	3.56	–
E31 [4], 2.7 nM	–	0.971
E31 [4], 8.2 nM	–	1.07
E31 [4], 24.7 nM	–	0.973
E31 [4], 74.1 nM	–	0.943
E31 [4], 222.2 nM	–	0.958
E31 [4], 666.7 nM	–	0.951
E31 [4], 2000 nM	–	0.448
E31 [11], 2.7 nM	0.66	–
E31 [11], 8.2 nM	0.527	–
E31 [11], 24.7 nM	0.585	–
E31 [11], 74.1 nM	0.697	–
E31 [11], 222.2 nM	0.744	–
E31 [11], 666.7 nM	0.876	–
E31 [11], 2000 nM	1.95	–
E34 [5], 2.7 nM	–	0.95
E34 [5], 8.2 nM	–	0.991
E34 [5], 24.7 nM	–	1
E34 [5], 74.1 nM	–	0.971
E34 [5], 222.2 nM	–	0.979
E34 [5], 666.7 nM	–	0.87
E34 [5], 2000 nM	–	0.731
E34 [12], 2.7 nM	0.787	–
E34 [12], 8.2 nM	0.702	–
E34 [12], 24.7 nM	0.648	–
E34 [12], 74.1 nM	0.775	–
E34 [12], 222.2 nM	0.511	–
E34 [12], 666.7 nM	1.19	–
E34 [12], 2000 nM	1.13	–
E57 [6], 2.7 nM	–	0.99
E57 [6], 8.2 nM	–	1.01
E57 [6], 24.7 nM	–	1.03
E57 [6], 74.1 nM	–	1.04
E57 [6], 222.2 nM	–	0.999
E57 [6], 666.7 nM	–	1.02
E57 [6], 2000 nM	–	0.791
E57 [13], 2.7 nM	0.81	–
E57 [13], 8.2 nM	0.581	–
E57 [13], 24.7 nM	0.418	–
E57 [13], 74.1 nM	0.557	–
E57 [13], 222.2 nM	0.584	–
E57 [13], 666.7 nM	0.739	–
E57 [13], 2000 nM	2.46	–
FT3469 [7], 2.7 nM	–	0.932
FT3469 [7], 8.2 nM	–	1.01
FT3469 [7], 24.7 nM	–	1.04
FT3469 [7], 74.1 nM	–	1.09
FT3469 [7], 222.2 nM	–	0.975
FT3469 [7], 666.7 nM	–	0.982
FT3469 [7], 2000 nM	–	0.775
FT3469 [14], 2.7 nM	0.776	–
FT3469 [14], 8.2 nM	0.699	–
FT3469 [14], 24.7 nM	2.24	–
FT3469 [14], 74.1 nM	1.29	–
FT3469 [14], 222.2 nM	0.569	–
FT3469 [14], 666.7 nM	0.6	–
FT3469 [14], 2000 nM	2.12	–
